Data as given in patent US10188612B2, “Pharmaceutical compositions for inhalation” (VECTURA LIMITED, priority 2000, dated 2019).

Test: Standard dissolution test (sintered glass disc over stirred reservoir of deionised water)
Type: physicochemical
Conditions: FIG. 2
Procedure: The samples were analysed in a Cecil Aquarius CE7200 ultraviolet spectrophotometer at a wavelength of 200 nm. The concentration of the samples was calculated with a previously prepared calibration graph and the concentration versus time was plotted.
The apparatus used is shown in FIG. 1 and comprises a 195 cm^3 reservoir (1) filled with deionised water (2) and having an inlet port (3) and an outlet port (4). A sintered glass disc (5) of approximately 50 mm diameter and 3 mm depth occupies an opening at the top of the reservoir (1) and sits horizontally in contact with the water (2). The water in the reservoir is stirred by a magnetic stirrer (6).
A known mass of approximately 1 mg of the formulation (7) to be tested is placed on the sinter and a timer is started. At various times, 1 cm^3 samples of the water are removed from the reservoir and are immediately replaced with 1 cm^3 deionised water to maintain the volume in the reservoir. The concentration of the active substance in the 1 cm^3 samples is determined by a suitable method.

C[N+]1(C)CCC(OC(=O)C(O)(c2ccccc2)C2CCCC2)C1 (centres unmarked) [glycopyrrolate]
time at which the maximum concentration is achieved: 10 min
concentration of active substance in the reservoir at the first time point (at 5 minutes, UV at 200 nm): greater than 10 mg/l
